Results from patent US20160209428A1, “DIAGNOSTIC AND PREDICTIVE METABOLITE PATTERNS FOR DISORDERS AFFECTING THE BRAIN AND NERVOUS SYSTEM” (THE REGENTS OF THE UNIVERSITY OF CALIFORNIA, priority 2013, published 2016).
Entries after “also recorded” stand apart in the source; their conditions may differ.

Tests used:
Assay type in all cases: in vivo
[1] = system: maternal immune activation (MIA) mouse model; assay: Plasma metabolomics after single-dose suramin or saline, MIA model; conditions: for Pathway normalized by single-dose suramin treatment: MIA mice
Description: Only male animals that had been behaviorally evaluated were tested. Samples were analyzed on an AB SCIEX QTRAP 5500 triple quadrupole mass spectrometer equipped with a Turbo V electrospray ionization source, Shimadzu LC-20A UHPLC system and a PAL CTC autosampler (AB SCIEX). […] Plasma was separated by centrifugation at 600 g×5 min at 20° C. within 1 h of collection. Fresh lithium-heparin plasma was transferred to labeled tubes for storage at −80° C. for analysis. Typically, 45 μl of plasma was thawed on ice and transferred to a 1.7-ml Eppendorf tube. Two and one-half (2.5) microliters of a cocktail containing 35 commercial stable isotope internal standards and 2.5 μl of 310 stable isotope internal standards that were custom-synthesized in Escherichia coli and Saccharomyces cerevisiae by metabolic labeling with ^13C-glucose and ^13C-bicarbonate were added, mixed and incubated for 10 min at 20° C. to permit small molecules and vitamins in the internal standards to associate with plasma-binding proteins. Macromolecules (protein, DNA, RNA and so on) were precipitated by extraction with 4 volumes (200 μl) of cold (−20° C.), acetonitrile:methanol (50:50) (LCMS grade, Cat no. LC015-2.5 and GC230-4, Burdick & Jackson, Honeywell, Muskegon, Mich., USA), vortexed vigorously and incubated on crushed ice for 10 min, and then removed with centrifugation at 16000 g×10 min at 4° C. The supernatants containing the extracted metabolites and internal standards in the resulting 40:40:20 solvent mix of acetonitrile:methanol:water were transferred to labeled cryotubes and stored at −80° C. for LC-MS/MS (liquid chromatography-tandem mass spectrometry) analysis.
LC-MS/MS analysis was performed by MRM under the Analyst v1.6.1 software control in both negative and positive modes with rapid polarity switching (50 ms). Nitrogen was used for curtain gas (set to 30), collision gas (set to high) and ion source gases 1 and 2 (set to 35). The source temperature was 500° C. Spray voltage was set to −4500V in negative mode and to 5500V in positive mode. The values for Q1 and Q3 mass-to-charge ratios (mz−1), declustering potential, entrance potential, collision energy and collision cell exit potential were determined and optimized for each MRM for each metabolite. Ten microliters of extract were injected with PAL CTC autosampler into a 250 mm×2.1 mm, 5-μm Luna NH2 aminopropyl HPLC column (Phenomenex) held at 25° C. for chromatographic separation. […] The flow rate was 300 μl min^−1. All the samples were kept at 4° C. during analysis. The chromatographic peaks were identified using MultiQuant v2.1.1 (AB SCIEX), confirmed by manual inspection and the peak areas were integrated. The median of the peak area of stable isotope internal standards was calculated and used for the normalization of metabolite concentration across the samples and batches. N=6, 6.5-month-old males per group. Metabolite data were log-transformed before multivariate and univariate analyses.
Group means and s.e.m. are reported. Behavioral data involving more than two groups were analyzed by two-way analysis of variance (ANOVA) and one-way ANOVAs (GraphPad Prism 5.0d, GraphPad Software Inc., La Jolla, Calif., USA). Pair-wise post hoc testing was performed by the method of Tukey. Repeated measures ANOVA with prenatal treatment and drug as between subject factors and stimulus (mouse/cup) on time spent with mouse or cup was used as an additional test of social preference. Student's t-test was used for comparisons involving the two groups. Significance was set at P<0.05. Bonferroni post hoc correction was used to control for multiple hypothesis testing when t-tests were used to test social preference in two or more experimental groups. Metabolomic data were analyzed using multivariate partial least squares discriminant analysis, Ward hierarchical clustering and univariate one-way ANOVA with pairwise comparisons and post hoc correction by Fisher's least significant difference test in MetaboAnalyst.

[2] = system: Fragile X (Fmr1) knockout mouse; assay: Marble burying, Fragile X model; conditions: KO-Sal v KO-Sur
Description: Marble burying behavior was measured over 30 minutes by a modification of methods used by Thomas, et al. (Thomas et al., 2009). Marble burying was used as a measure of normal rodent digging behavior. Marble burying has sometimes been considered a measure of anxiety, however, comprehensive genetic and behavioral studies have shown that marble burying is a normal mouse behavior that is genetically determined (Thomas et al., 2009). Marble burying was diminished 38% in Fragile X knockout mice.

[3] = system: Fragile X (Fmr1) knockout mouse; assay: Body temperature measurements (rectal core temperature)
Description: A BAT-12 Microprobe digital thermometer and RET-3 mouse rectal probe (Physitemp Instruments, Clifton, N.J.) were used to obtain rectal core temperatures to a precision of +/−0.1° C. Care was taken to measure temperatures ≧2 days after cage bedding changes, and to avoid animal transport stress immediately prior to measurement in order to avoid stress-induced hyperthermia (Adriaan Bouwknecht et al., 2007). Temperatures were measured between 9 am to 12 noon each day.
Normal basal body temperature was restored by antipurinergic therapy with suramin.

Cc1ccc(C(=O)Nc2ccc(S(=O)(=O)O)c3cc(S(=O)(=O)O)cc(S(=O)(=O)O)c23)cc1NC(=O)c1cccc(NC(=O)Nc2cccc(C(=O)Nc3cc(C(=O)Nc4ccc(S(=O)(=O)O)c5cc(S(=O)(=O)O)cc(S(=O)(=O)O)c45)ccc3C)c2)c1 [Suramin, suramin]
Pathways normalized by single-dose suramin treatment, all disturbed pathways ([1]; 17/18 pathways disturbed in the MIA model, plasma): 94% (17/18)
Pathway normalized by single-dose suramin treatment ([1]; Amino-sugar and galactose metabolism, plasma): Yes (1/1)
Pathway normalized by single-dose suramin treatment ([1]; Bile salt metabolism, plasma): No (0/3)
Pathway normalized by single-dose suramin treatment ([1]; Biopterin, neopterin, molybdopterin metabolism, plasma): Yes (1/1)
Pathway normalized by single-dose suramin treatment ([1]; Cholesterol, cortisol, steroid metabolism, plasma): Yes (4/4)
Pathway normalized by single-dose suramin treatment ([1]; GABA, glutamate, arginine, omithine, proline metabolism, plasma): Yes (1/1)
Pathway normalized by single-dose suramin treatment ([1]; Glycolysis and gluconeogenesis, plasma): Yes (3/3)
Pathway normalized by single-dose suramin treatment ([1]; Krebs cycle, plasma): Yes (2/2)
bile salt pathway disturbance ([1]; MIA model): not restored
Pathway normalized by single-dose suramin treatment ([1]; Microbiome metabolism, plasma): Yes (6/6)
Pathway normalized by single-dose suramin treatment ([1]; Oxalate, glyxoylate metabolism, plasma): Yes (2/2)
Pathway normalized by single-dose suramin treatment ([1]; Phospholipid metabolism, plasma): Yes (4/4)
Pathway normalized by single-dose suramin treatment ([1]; Purine metabolism, (metabolites normalized/discriminating), plasma 2 days after single dose): Yes (9/11)
Pathway normalized by single-dose suramin treatment ([1]; Pyrimidine metabolism, plasma): Yes (1/1)
Pathway normalized by single-dose suramin treatment ([1]; SAM, SAH, methionine, cysteine, glutathione metabolism, plasma): Yes (1/1)
Pathway normalized by single-dose suramin treatment ([1]; Sphingolipid metabolism, plasma): Yes (4/4)
Pathway normalized by single-dose suramin treatment ([1]; Thyroxine metabolism, plasma): Yes (1/1)
Pathway normalized by single-dose suramin treatment ([1]; Tryptophan metabolism, plasma): Yes (1/1)
Pathway normalized by single-dose suramin treatment ([1]; Vitamin B2 (riboflavin) metabolism, plasma): Yes (1/1)
Pathway normalized by single-dose suramin treatment ([1]; Vitamin B3 (niacin/NAD) metabolism, plasma): Yes (1/1)
differences in metabolic profile between control and MIA animals ([1]; plasma 2 days after single dose suramin 20 mg kg^−1 i.p.): substantially normalized; also recorded: drives the metabolism of MIA animals (PIC-Sal) strongly in the direction of controls
diminished marble burying [2]: improved
body temperature of control animals ([3]; WT-Sal vs WT-Sur): no effect
basal body temperature of Fmr1 knockout mice ([3]; relative hypothermia of knockout, suramin treatment): restored
